Experiments:
[1] = Toxicity in ig dosed Kunming mouse; format: organism-based; conditions: in vivo, po
Mus musculus = assay: Analgesic activity in ig dosed mouse by hot plate test; format: functional; conditions: po
[2] = Therapeutic index, ratio of LD50 in Kunming mouse to ED50 for analgesic activity in mouse; format: organism-based; conditions: in vivo, read-out: Ratio LD50/ED50

| Structure (SMILES) | LD50 [1] [mg/kg] | ED50 (Mus musculus) [mg/kg] | selectivity ratio [2] |
| --- | --- | --- | --- |
| CCN1C[C@]2(COC)[C@H](O)C[C@H](OC)[C@@]34[C@@H]5C[C@@]6(O)[C@H](OC(=O)c7ccccc7)[C@@H]5[C@@](OC(C)=O)([C@@H]([C@H](OC)[C@H]23)[C@@H]14)[C@@H](O)[C@@H]6OC [ACONITINE] | 0.16 | 0.08 | 2 |
| CCN1C[C@]2(COC)CC[C@H](OC)[C@@]34C1O[C@H](C=C1[C@H]5[C@@H](O)[C@H](C[C@H]53)[C@@H](OC)[C@H]1O)[C@H]24 [GUIWULINE] | 500 | 15 | 33 |

Source: ChEMBL document CHEMBL2040812, “A novel franchetine type norditerpenoid isolated from the roots of Aconitum carmichaeli Debx. with potential analgesic activity and less toxicity” (Bioorg Med Chem Lett, 2012)
